# Laboratory results taken from patent US20120122903A1, “1-H-QUINAZOLINE-2, 4-DIONES FOR USE IN THE TREATMENT OF NEURONAL CEROID LIPOFUSCINOSIS” (priority 2009, published 2012).
# Assays:
# mouse = assay: Oral activity in vivo (audiogenic mouse test and/or MES test); conditions: oral administration
# Experimental: The oral bioavailability was tested using the audiogenic mouse test (Audiogenic seizures, R. L. Collins; Chapter 14, pages: 347-372. In: Experimental Models of Epilepsy; By: Pupura, Penry, Tower, Woodbury, Waiter, Raven Press, New York, 1972. Standard Book Number: 0-911216-26-X) and/or the MES test.
# OF1 mice [1] = assay: Murine maximal electroshock test (MES test); assay type: in vivo, mouse; conditions: for ED50: Mus musculus, po, pre-treatment time 1 h; for MES-Test (1 h, po) % protection @ 50: p.o., percentage of protected mice, printed '@ 50' (mg/kg)
# Experimental: Compounds of the invention were tested in OF1 mice using the maximal electroshock test (MES Test) described in detail by Schmutz et al., Naunyn-Schmiedeberg's Arch Pharmacol 1990, 342, 61-66. Briefly, generalized tonic-clonic convulsions of the hind extremities were induced by passing electrical current through temporal electrodes (50 Hz, 18 mA, 0.2 s). […] 30 mg/kg carbamazepine was used as a positive control; mice were classified as protected by a compound if the duration of the seizure lasted only 3 second or less. Five mice were used for each treatment condition and the percentage of protected mice was used as readout (i.e. a compound could give 0%, 20%, 40%, 60%, 80% or 100% protection). Compounds of the invention were given at a dose of 50 mg/kg, p.o., 1 hour prior to induction of convulsions (i.e. “pre-treatment time−1 h”).
# ED50 values (ED: effective dose) were calculated using GraphPad Prism, v4.02.
# 15 s after shock administration, mouse blood was collected for determination of compounds' blood exposure.
# OF1 mice [2] = assay: Murine maximal electroshock test (MES test); assay type: in vivo, mouse; conditions: p.o., percentage of protected mice; for MES-Test (1 h, po) % protection @ 25: printed '@ 25' (mg/kg)
Compound,In vivo orally active (mouse),ED50 (OF1 mice [1]),"MES-Test (1 h, po) % protection @ 25 (OF1 mice [2])","MES-Test (1 h, po) % protection @ 50 (OF1 mice [1])","MES-Test (1 h, po) % protection @ 20 (OF1 mice [2]; printed '@ 20' (mg/kg))"
"CCOC(C)c1cc2c(=O)n(NS(C)(=O)=O)c(=O)[nH]c2cc1C(F)(F)F (centres unmarked) [Compound A-5, N-[6-(1-Ethoxy-ethyl)-2,4-dioxo-7-trifluoromethyl-1,4-dihydro-2H-quinazolin-3-yl]-methanesulfonamide]",Yes,8.8 mg/kg,,,
"CCC(OC(C)C)c1cc2c(=O)n(NS(C)(=O)=O)c(=O)[nH]c2cc1C(F)(F)F (centres unmarked) [Compound A-7, N-[6-(1-Isopropoxy-propyl)-2,4-dioxo-7-trifluoromethyl-1,4-dihydro-2H-quinazolin-3-yl]-methanesulfonamide]",Yes,24.7 mg/kg,,,
"CCCC(O)c1cc2c(=O)n(NS(C)(=O)=O)c(=O)[nH]c2cc1C(F)(F)F (centres unmarked) [Compound A-15, N-[6-(1-Hydroxy-butyl)-2,4-dioxo-7-trifluoromethyl-1,4-dihydro-2H-quinazolin-3-yl]-methanesulfonamide]",Yes,35 mg/kg,,,
"CS(=O)(=O)Nn1c(=O)[nH]c2cc(C(F)(F)F)c(C3CCOC3)cc2c1=O (centres unmarked) [Compound B-3, N-[2,4-Dioxo-6-(tetrahydro-furan-3-yl)-7-trifluoromethyl-1,4-dihydro-2H-quinazolin-3-yl]-methanesulfonamide]",Yes,,20% @ 25^3,,
"COCCn1nccc1-c1cc2c(=O)n(NS(C)(=O)=O)c(=O)[nH]c2cc1C(C)C [Compound C-1, N-{7-Isopropyl-6-[2-(2-methoxy-ethyl)-2H-pyrazol-3-yl]-2,4-dioxo-1,4-dihydro-2H-quinazolin-3-yl}-methanesulfonamide]",yes,,40% @ 25^,,
"CC(C)n1nccc1-c1cc2c(=O)n(NS(C)(=O)=O)c(=O)[nH]c2cc1C(F)(F)F [Compound C-2, N-[6-(2-Isopropyl-2H-pyrazol-3-yl)-2,4-dioxo-7-trifluoromethyl-1,4-dihydro-2H-quinazolin-3-yl]-methanesulfonamide]",Yes,17.7 mg/kg,,,
"CCc1cc2[nH]c(=O)n(NS(C)(=O)=O)c(=O)c2cc1-c1ccnn1C(C)C [Compound C-6, N-[7-Ethyl-6-(2-isopropyl-2H-pyrazol-3-yl)-2,4-dioxo-1,4-dihydro-2H-quinazolin-3-yl]-methanesulfonamide]",yes,,,20% @ 50^,
"CC(C)c1cc2[nH]c(=O)n(NS(C)(=O)=O)c(=O)c2cc1-c1ccnn1C [Compound C-7, N-[7-Isopropyl-6-(2-methyl-2H-pyrazol-3-yl)-2,4-dioxo-1,4-dihydro-2H-quinazolin-3-yl]-methanesulfonamide]",Yes,6.9 mg/kg,,,
"CC(C)c1cc2[nH]c(=O)n(NS(C)(=O)=O)c(=O)c2cc1-c1ccnn1C(C)C [Compound C-8, N-[7-Isopropyl-6-(2-isopropyl-2H-pyrazol-3-yl)-2,4-dioxo-1,4-dihydro-2H-quinazolin-3-yl]-methanesulfonamide]",yes,,,40% @ 50^,
"Cn1nccc1-c1cc2c(=O)n(NS(C)(=O)=O)c(=O)[nH]c2cc1C(F)F [Compound C-9, N-[7-Difluoromethyl-6-(2-methyl-2H-pyrazol-3-yl)-2,4-dioxo-1,4-dihydro-2H-quinazolin-3-yl]-methanesulfonamide]",Yes,7.5 mg/kg,,,
"CC(C)n1nccc1-c1cc2c(=O)n(NS(C)(=O)=O)c(=O)[nH]c2cc1C(F)F [Compound C-10, N-[7-Difluoromethyl-6-(2-isopropyl-2H-pyrazol-3-yl)-2,4-dioxo-1,4-dihydro-2H-quinazolin-3-yl]-methanesulfonamide]",Yes,20.3 mg/kg,,,
"CCc1cc2[nH]c(=O)n(NS(C)(=O)=O)c(=O)c2cc1-c1ccnn1C [Compound C-11, N-[7-Ethyl-6-(2-methyl-2H-pyrazol-3-yl)-2,4-dioxo-1,4-dihydro-2H-quinazolin-3-yl]-methanesulfonamide]",Yes,6.1 mg/kg,,,
"CCc1cc2[nH]c(=O)n(NS(C)(=O)=O)c(=O)c2cc1-c1ccnn1CC [Compound C-12, N-[7-Ethyl-6-(2-ethyl-2H-pyrazol-3-yl)-2,4-dioxo-1,4-dihydro-2H-quinazolin-3-yl]-methanesulfonamide]",Yes,42.8 mg/kg,,,
"Cn1nccc1-c1cc2c(=O)n(NS(C)(=O)=O)c(=O)[nH]c2cc1C(C)(F)F [Compound C-15, N-[7-(1,1-difluoro-ethyl)-6-(2-methyl-2H-pyrazol-3-yl)-2,4-dioxo-1,4-dihydro-2H-quinazolin-3-yl]-methanesulfonamide]",Yes,,,,80% @ 20^
"CC(F)c1cc2[nH]c(=O)n(NS(C)(=O)=O)c(=O)c2cc1-c1ccnn1C(C)C (centres unmarked) [Compound C-17, N-[7-(1-fluoro-ethyl)-6-(2-isopropyl-2H-pyrazol-3-yl)-2,4-dioxo-1,4-dihydro-2H-quinazolin-3-yl]-methanesulfonamide]",Yes,> 20 mg/kg,,,
"Cn1nccc1-c1cc2c(=O)n(NS(C)(=O)=O)c(=O)[nH]c2cc1C(F)(F)F [Compound C-18, N-[6-(2-Methyl-2H-pyrazol-3-yl)-2,4-dioxo-7-trifluoromethyl-1,4-dihydro-2H-quinazolin-3-yl]-methanesulfonamide]",Yes,14.8 mg/kg,,,
